# In US20160106439A1, “PNEUMATIC TOURNIQUET” (BIONUMERIK PHARMACEUTICALS, INC., priority 2013, published 2016):
# Where two headings read alike, the source gives them in different places.
# Experiments:
# [1] = molecular target: T790M EGFR kinase (Homo sapiens, UniProt P00533, T790M); assay: T790M EGFR kinase assay (ADP-glo); assay type: biochemical
# [2] = tested on: human breast, ovarian and lymphoma cancer cell lines; assay: Interference with paclitaxel induced apoptosis (PARP cleavage, Bcl-2 phosphorylation, DNA laddering); assay type: cell-based
# From the text: Tavocept mediates the non-enzymatic xenobiotic modification of sulfur-containing amino acid residues (e.g., cysteine) on proteins. As an engineered, non-naturally occurring agent (i.e., xenobiotic), Tavocept is autocatalytic and requires no protein cofactor to cause the xenobiotic modification of cysteine, but appears to be specific for cysteine residues located within a particular structural context (i.e., not all cysteines in a protein are so modified). Tavocept-mediated, xenobiotic modification represents a novel mechanism of action for a cancer treating agent and can be compared to a degree with post-translational modifications of cysteine residues in proteins (see, Table 3, below).
# [3] = molecular target: T1, recombinant human farnesyltransferase (Homo sapiens, UniProt P49354+P49356); assay: Farnesyltransferase Dansyl-GCVLS fluorescence assay; assay type: biochemical; conditions: 25 nM FTase, 3 μM Dansyl-GCVLS, 25° C.
# T1 construct: purchased Abcam
# T1 sequence (P49356 whole entry, one chain of several): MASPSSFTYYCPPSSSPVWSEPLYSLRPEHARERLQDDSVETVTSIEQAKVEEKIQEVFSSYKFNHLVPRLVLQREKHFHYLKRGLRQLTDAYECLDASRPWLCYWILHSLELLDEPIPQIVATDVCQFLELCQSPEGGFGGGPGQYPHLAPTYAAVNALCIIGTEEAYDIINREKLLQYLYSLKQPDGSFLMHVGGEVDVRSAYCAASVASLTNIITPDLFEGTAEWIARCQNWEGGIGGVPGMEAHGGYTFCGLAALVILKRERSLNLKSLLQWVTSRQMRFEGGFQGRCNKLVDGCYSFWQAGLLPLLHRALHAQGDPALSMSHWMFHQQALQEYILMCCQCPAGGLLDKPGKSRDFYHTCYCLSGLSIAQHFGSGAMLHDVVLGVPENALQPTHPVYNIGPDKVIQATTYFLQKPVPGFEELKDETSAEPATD
# Experimental: Tavocept-inhibited human farnesyltransferase-mediated transfer of farnesylpyrophosphate to the cysteine residue in a danyslated peptide substrate of sequence glycine-cysteine-valine-leucine-serine (designated-Dansyl-GCVLS) in vitro. See, FIG. 79. The assay reactions contained 25 nM recombinant human farnesyltransferase (Abcam), 10 μM farnesylpyrophosphate (SigmaAldrich), 3 μM Dansyl-GCVLS (NeoBioScience) in Tris buffer (50 mM, pH 7.5) containing 5 mM MgCl2, 10 μM ZnCl2, and 0.2% octyl-β-D-glucopyranoside. Total assay volumes were 50 μL and the reactions were initiated by the addition of FTase (5 μL of 250 nM stock was added to 45 μL of assay components listed above). The excitation wavelength was 340 nm (a 340 nm filter with 25 nm bandpass) and the emission wavelength was […] (505 nm filter with 20 nm bandpass) and the assay temperature was 25° C. Progress curves of the transfer of the farnesylpyrophosphate to the Dansyl-GCVLS substrate are shown in FIG. 79, Panel A and relative rates of the progress curve were determined and are shown in FIG. 79, Panel B.
# [4] = molecular target: T2, Anaplastic Lymphoma Kinase (ALK) (Homo sapiens, UniProt Q9UM73); assay: ALK kinase activity (summary Table 27); assay type: biochemical
# T2 construct: illustrates the kinase domain of ALK (residues 1058-1623) which was used in these experiments; purchased Millipore; host or cells: Sf21 insect cells (baculovirus)
# T2 sequence (Q9UM73 1058-1620 limits assumed): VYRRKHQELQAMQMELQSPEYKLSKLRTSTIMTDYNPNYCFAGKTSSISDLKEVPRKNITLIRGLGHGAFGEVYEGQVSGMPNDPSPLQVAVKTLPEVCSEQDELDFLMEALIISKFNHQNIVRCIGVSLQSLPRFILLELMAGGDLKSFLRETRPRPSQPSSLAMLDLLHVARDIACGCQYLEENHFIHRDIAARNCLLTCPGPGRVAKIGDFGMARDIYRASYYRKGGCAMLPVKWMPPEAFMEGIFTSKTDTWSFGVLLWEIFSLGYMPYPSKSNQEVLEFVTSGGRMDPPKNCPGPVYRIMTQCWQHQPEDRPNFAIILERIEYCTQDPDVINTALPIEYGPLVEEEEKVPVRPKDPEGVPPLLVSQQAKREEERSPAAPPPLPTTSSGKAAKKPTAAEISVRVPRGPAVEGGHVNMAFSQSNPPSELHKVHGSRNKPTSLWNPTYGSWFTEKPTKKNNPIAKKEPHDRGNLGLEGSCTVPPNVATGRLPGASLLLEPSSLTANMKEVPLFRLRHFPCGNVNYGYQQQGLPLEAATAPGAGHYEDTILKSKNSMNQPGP
# [5] = molecular target: T3, Mesenchymal Epithelial Transition (MET) Factor Kinase (Homo sapiens, UniProt P08581); assay: MET kinase inhibition (summary Table 27); assay type: biochemical; conditions: modification of non-active site cysteine(s)
# T3 construct: the kinase domain of MET (residues 956-end) was used in these experiments; purchased SignalChem M52-18G-10; host or cells: Sf9 insect cells
# T3 sequence (P08581 956-1390 limits assumed): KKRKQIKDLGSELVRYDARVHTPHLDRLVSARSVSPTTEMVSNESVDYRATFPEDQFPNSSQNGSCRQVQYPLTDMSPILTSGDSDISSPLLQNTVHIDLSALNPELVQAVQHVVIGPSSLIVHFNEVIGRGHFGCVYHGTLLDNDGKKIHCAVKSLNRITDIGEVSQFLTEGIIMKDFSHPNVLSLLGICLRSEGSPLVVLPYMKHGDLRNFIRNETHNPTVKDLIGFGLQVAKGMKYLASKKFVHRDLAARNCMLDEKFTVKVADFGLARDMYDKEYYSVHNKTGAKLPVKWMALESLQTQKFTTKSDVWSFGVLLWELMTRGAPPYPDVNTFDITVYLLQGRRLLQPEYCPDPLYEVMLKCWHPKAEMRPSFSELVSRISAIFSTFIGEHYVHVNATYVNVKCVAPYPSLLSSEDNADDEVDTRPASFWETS
# [6] = molecular target: T4, Recombinant human Trx (Homo sapiens, UniProt P10599); assay type: biochemical; design: 6xHis (N); purchased Sigma (Trx); American Diagnostica (bovine TrxR); conditions: Reaction B; disulfide 0.5 mM
# T4 sequence (P10599 1-105): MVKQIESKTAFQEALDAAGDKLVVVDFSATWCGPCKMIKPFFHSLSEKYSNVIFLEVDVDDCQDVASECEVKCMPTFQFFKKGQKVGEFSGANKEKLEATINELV
# Experimental: See, Luthman M and Holmgren A. Rat liver thioredoxin and thioredoxin reductase: purification and characterization. […] All disulfides were added to reactions as 10x solutions in buffer. The total volume of each reaction was 0.1 mL. Reactions were initiated by the addition of TrxR and were incubated at 25° C. for 40 minutes. Reactions were analyzed using a Molecular Devices SpectraMax Plus UV/vis plate reader and the activity was calculated using a 4 minute linear portion of each assay.
# Chain of T790M EGFR kinase (P00533 25-1210 T790M): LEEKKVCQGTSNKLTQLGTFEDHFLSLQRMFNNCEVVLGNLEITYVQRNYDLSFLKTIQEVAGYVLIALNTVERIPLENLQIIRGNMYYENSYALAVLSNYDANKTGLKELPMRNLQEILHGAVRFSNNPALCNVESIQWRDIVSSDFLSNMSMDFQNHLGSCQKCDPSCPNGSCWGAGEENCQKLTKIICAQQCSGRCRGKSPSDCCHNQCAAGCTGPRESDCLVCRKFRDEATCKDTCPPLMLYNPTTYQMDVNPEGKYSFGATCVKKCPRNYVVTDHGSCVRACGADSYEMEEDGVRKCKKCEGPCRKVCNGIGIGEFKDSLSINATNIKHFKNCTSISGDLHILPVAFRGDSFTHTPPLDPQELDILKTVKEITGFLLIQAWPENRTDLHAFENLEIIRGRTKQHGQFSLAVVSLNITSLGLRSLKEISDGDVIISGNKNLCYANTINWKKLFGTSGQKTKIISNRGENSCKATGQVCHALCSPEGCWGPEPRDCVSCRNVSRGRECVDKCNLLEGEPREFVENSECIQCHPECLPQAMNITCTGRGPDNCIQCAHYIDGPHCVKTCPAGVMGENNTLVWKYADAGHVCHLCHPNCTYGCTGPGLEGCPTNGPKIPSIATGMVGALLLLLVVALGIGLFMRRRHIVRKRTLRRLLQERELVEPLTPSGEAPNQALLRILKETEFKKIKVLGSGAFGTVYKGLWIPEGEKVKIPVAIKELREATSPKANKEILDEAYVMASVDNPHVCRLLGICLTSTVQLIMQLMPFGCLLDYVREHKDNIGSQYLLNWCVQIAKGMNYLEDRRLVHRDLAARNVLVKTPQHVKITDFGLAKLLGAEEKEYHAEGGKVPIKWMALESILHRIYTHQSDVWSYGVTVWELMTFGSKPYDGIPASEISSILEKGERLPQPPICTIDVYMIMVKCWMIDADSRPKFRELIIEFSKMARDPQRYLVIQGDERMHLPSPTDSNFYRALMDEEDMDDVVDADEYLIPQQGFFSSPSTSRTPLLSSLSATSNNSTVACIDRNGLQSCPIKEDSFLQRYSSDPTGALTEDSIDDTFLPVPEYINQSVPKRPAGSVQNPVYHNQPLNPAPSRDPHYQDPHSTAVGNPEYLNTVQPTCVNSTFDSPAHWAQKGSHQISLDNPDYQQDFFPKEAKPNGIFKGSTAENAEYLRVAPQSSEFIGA
structure (smiles),measurement,setting,value
"O=S(=O)([O-])CCSSCCS(=O)(=O)[O-].[Na+].[Na+] [Tavocept, disodium 2,2′-dithio-bis-ethane sulfonate]",potentiation of Erlotinib inhibition of T790M EGFR kinase,[1]; 10 μM ATP,strongly potentiated
same,IC50,"[1]; 10 μM ATP, read-out: IC50 on T790M EGFR kinase activity",> 40 mM
same,inhibition of T790M EGFR kinase,"[1]; 10 μM or 100 μM ATP, physiological concentrations (<20 mM)",did not notably inhibit
same,IC50,"[1]; 100 μM ATP, read-out: IC50 on T790M EGFR kinase activity",> 40 mM
same,IC50,[1]; read-out: IC50 on T790M EGFR kinase,> 40 mM
same,interference with paclitaxel induced apoptosis,[2],does not interfere
same,Inhibition of farnesylation,[3],inhibits farnesylation in a concentration-dependent manner
same,Effect on ALK kinase activity,[4],resulting in inhibition of ALK kinase
same,Effect on MET,[5],resulting in enzyme inhibition (MET).
same,Reduction of disulfide by Trx in the presence of TrxR and NADPH,[6],readily reduced
